# According to patent US20180200259A1 (priority 2015, published 2018):
# Structures can show the parent of a compound that is named as a salt. Where two headings read alike, the source gives them in different places.
# Legend:
# [1] = system: adrenal chromaffin and human neuroblastoma cells; details: comparison cholinesterase inhibitor; cited from earlier work
# [2] = system: mild to moderate AD patients; details: cited from earlier work
# Bv-2 microglial cells = experiment: Aβ oligomer clearance measurement in Bv-2 microglial cell cultures; type: cell-based; details: 0.33 μM galantamine; 24 h before oligomerized Aβ1-42 (10 μM) for 6 h
# Procedure: Aβ oligomers were prepared using beta-amyloid (1-42) from American Peptide (Product #62-0-80). One aliquot was dissolved in an adequate volume of TBS (50 mM Tris-Buffer, 150 mM NaCl, pH-7.4) to achieve a final concentration of 1.7 mg/ml (corresponding to 340 μM). The solution was sonicated for 2 minutes and then diluted 1:2 in water to obtain a final concentration of 170 μM. Next, the Aβ was allowed to aggregate at 4° C. for 48 hours. Prior to application, the solution was sonicated for another minute.
# Bv-2 microglial cells were kept in culture medium (DMEM medium, 10% FBS, 2 mM glutamine, 1% Penc/Strep) until 80-90% confluency. Cells were maintained at 37° C., 95% humidity and 5% CO2. Afterwards, cells were seeded in culture medium on 24-well plates at a cell density of 1×10^5 cells per well. After 24 h, the medium was exchanged for the treatment medium (DMEM medium, 5% FBS, 2 mM glutamine). […] The medium was separated by affinity (removing monomers) and the oligomers not phagocytosed were disaggregated by hexafluoroisopropanol (HFIP) treatment and measured by MSD. […]
# The immune assay was carried out according to the Mesoscale Discovery manual and plates were read on the Sector Imager (MSD). Analyte levels were evaluated according to adequate Aβ peptide standards (MSD). […] Data are presented as mean ±standard error of mean (SEM) Group differences are evaluated by one-way ANOVA.
# [3] = system: CA1 pyramidal neurons in the dorsal hippocampus; experiment: Dendritic spine assessment (Afraxis ESP) after five days ip dosing; type: in vivo, mice; details: 0.1 mg/kg per day for five days
# Procedure: Adult C57B16 mice, (8 weeks old) were administered vehicle or test sample, 0.005, 0.03, 0.07, 0.1 or 0.2 mg/kg, ip, per day for five days prior to sacrifice after rapid anesthetization with isofluorane. Brain tissue was sectioned into […] slices from anterior to posterior extremes.
# Ballistic dye labelling was performed, followed by laser-scanning confocal microscopy (Olympus FV1000) using a 63× objective (1.42 NA) to scan individually labelled neurons at high resolution (0.103×0.103×0.33 μm voxels). Target neurons were identified in the brain region of interest by anatomical location and cell morphology. Microscopy was performed blind to experimental conditions. A minimum of 5 samples per animal were measured for each segment.
# Afraxis ESP dendritic spine analysis and assessment of dendritic membrane integrity. Blind deconvolution (AutoQuant) was applied to raw three-dimensional digital images which were then analyzed for spine density and morphology by trained analysts, individual spines were measured manually for (a) head diameter, (b) length, and (c) neck thickness from image Z-stacks using custom-built Afraxis ESP software. Each dendrite was analyzed by 3 independent analysts. […]
# Statistics. […] For all group comparisons of parametric values, statistical significance was determined using the analysis of variance test (ANOVA; SPSS). […]
# Rat cortical neurons = experiment: Neurite assessment: Aβ1-42 oligomer injury of cortical neurons (MAP-2); type: cell-based; details: 1 μM; Aβ oligomer 20 μM, 24 h
# Procedure: Rat cortical neurons were cultured as described by Callizot et al (J Neurosci Res 2013; 91:706-716). On day II of culture, Aβ oligomer solution, 20 μM, was applied. The Aβ oligomer preparation, having an average weight of 90 kDa, prepared as described by Callizot et al (op cit) contained only diffusible species, not fibrils or protofibrils. Briefly, Aβ1-42 peptide at a concentration of 40 μM was dissolved in the culture medium, gently agitated for 3 days at 37° C. in the dark, and used immediately after dilution. Test compound and BDNF (50 ng/ml) were dissolved in culture medium (maximum of 0.1% DMSO final concentration) then pre-incubated with primary cortical neurons for 24 h before the Aβ1-42 oligomer solution application
# The oligomers were incubated with the neurons and various concentrations of test compound or BDNF, 50 ng/ml, the positive control, for 24 hours, in 6 replicates per condition. Then the supernatant was removed and the neurons were fixed with a cold ethanol and acetic acid solution. The cells were permeabilized with 0.4% saponin and then incubated for 2 h with mouse monoclonal antibody […] microtubule-associated protein 2 (MAP-2). Subsequently, Alexa-Fluor 488 goat anti-mouse IgG was applied, and images were obtained and analyzed automatically.
compound,measurement,setting,value
Nc1c2c(nc3ccccc13)CCCC2 [tacrine],neuroprotective effect against induced apoptosis,[1],did not occur
Solanezumab: antibody directed at the central portion of Aβ,functional decline as measured by the ADCS-ADL,[2]; Expedition I,not significantly affected
same,reduction of functional decline as measured by the ADCS-ADL,[2]; Expedition II,19%
same,additional cognitive deterioration on the ADAS-cog versus placebo,[2]; patients not receiving cholinesterase inhibitors (no SOC),3.6 points
same,additional cognitive deterioration on the ADAS-cog versus placebo,[2]; patients on memantine only,4.1 points
COc1ccc2c3c1O[C@H]1C[C@@H](O)C=C[C@@]31CCN(C)C2 [Galantamine hydrobromide],Aβ1-42 oligomers in the medium,Bv-2 microglial cells,reduced Aβ1-42 oligomers in the medium significantly
same,spine density in apical dendritic samples,[3],significant increase
same,protective effect on neurite network reduced by Aβ oligomer,Rat cortical neurons,significant protective effect
